# Test results from ChEMBL document CHEMBL4004803, “Syntheses and antibacterial activity of soluble 9-bromo substituted indolizinoquinoline-5,12-dione derivatives” (Eur J Med Chem, 2017).
# How the values were obtained:
# Format in all cases: functional
# Staphylococcus aureus [1] = test: Antibacterial activity against […] Staphylococcus aureus ATCC 25923 after 20 to 24 hrs by two-fold microdilution method
# Staphylococcus aureus [2] = test: Antibacterial activity against methicillin-resistant Staphylococcus aureus ATCC 43300 after 20 to 24 hrs by two-fold microdilution method
# [3] = test system: Staphylococcus haemolyticus; test: Antibacterial activity against Staphylococcus haemolyticus CICC 10373 after 20 to 24 hrs by two-fold microdilution method
# Streptococcus pneumoniae = test: Antibacterial activity against Streptococcus pneumoniae ATCC 6305 after 20 to 24 hrs by two-fold microdilution method
# [4] = test system: Staphylococcus epidermidis; test: Antibacterial activity against Staphylococcus epidermidis ATCC 12228 after 20 to 24 hrs by two-fold microdilution method
# Staphylococcus aureus [5] = test: Antibacterial activity against methicillin-resistant Staphylococcus aureus 122045 clinical isolate after 20 to 24 hrs by two-fold microdilution method
# Staphylococcus aureus [6] = test: Antibacterial activity against methicillin-resistant Staphylococcus aureus 305026 clinical isolate after 20 to 24 hrs by two-fold microdilution method
# Staphylococcus aureus [7] = test: Antibacterial activity against methicillin-resistant Staphylococcus aureus 216054 clinical isolate after 20 to 24 hrs by two-fold microdilution method
# Staphylococcus aureus [8] = test: Antibacterial activity against methicillin-resistant Staphylococcus aureus 103054 clinical isolate after 20 to 24 hrs by two-fold microdilution method
# Staphylococcus aureus [9] = test: Antibacterial activity against methicillin-resistant Staphylococcus aureus 1029025 clinical isolate after 20 to 24 hrs by two-fold microdilution method
# Staphylococcus aureus [10] = test: Antibacterial activity against methicillin-resistant Staphylococcus aureus 110910-2 clinical isolate after 20 to 24 hrs by two-fold microdilution method
# Staphylococcus aureus [11] = test: Antibacterial activity against methicillin-resistant Staphylococcus aureus 110432 clinical isolate after 20 to 24 hrs by two-fold microdilution method
# Staphylococcus aureus [12] = test: Antibacterial activity against methicillin-resistant Staphylococcus aureus GLH15 clinical isolate after 20 to 24 hrs by two-fold microdilution method
# Staphylococcus aureus [13] = test: Antibacterial activity against methicillin-resistant Staphylococcus aureus 121969 clinical isolate after 20 to 24 hrs by two-fold microdilution method
# Staphylococcus aureus [14] = test: Antibacterial activity against methicillin-resistant Staphylococcus aureus 122710-2 clinical isolate after 20 to 24 hrs by two-fold microdilution method
# Staphylococcus aureus [15] = test: Antibacterial activity against methicillin-resistant Staphylococcus aureus 122820-2 clinical isolate after 20 to 24 hrs by two-fold microdilution method
# Staphylococcus aureus [16] = test: Antibacterial activity against methicillin-resistant Staphylococcus aureus 11819 clinical isolate after 20 to 24 hrs by two-fold microdilution method
# Staphylococcus aureus [17] = test: Antibacterial activity against methicillin-resistant Staphylococcus aureus 11703 clinical isolate after 20 to 24 hrs by two-fold microdilution method
# Staphylococcus aureus [18] = test: Antibacterial activity against methicillin-resistant Staphylococcus aureus 12308 clinical isolate after 20 to 24 hrs by two-fold microdilution method
# Staphylococcus aureus [19] = test: Antibacterial activity against methicillin-resistant Staphylococcus aureus 221014 clinical isolate after 20 to 24 hrs by two-fold microdilution method
# Staphylococcus aureus [20] = test: Antibacterial activity against methicillin-resistant Staphylococcus aureus 30116-1 clinical isolate after 20 to 24 hrs by two-fold microdilution method
# Staphylococcus aureus [21] = test: Antibacterial activity against methicillin-resistant Staphylococcus aureus 3250299 clinical isolate after 20 to 24 hrs by two-fold microdilution method
# Staphylococcus aureus [22] = test: Antibacterial activity against methicillin-resistant Staphylococcus aureus 504008 clinical isolate after 20 to 24 hrs by two-fold microdilution method
# Staphylococcus aureus [23] = test: Antibacterial activity against methicillin-resistant Staphylococcus aureus 625032 clinical isolate after 20 to 24 hrs by two-fold microdilution method
# Staphylococcus aureus [24] = test: Antibacterial activity against methicillin-resistant Staphylococcus aureus 519028 clinical isolate after 20 to 24 hrs by two-fold microdilution method
# Staphylococcus aureus [25] = test: Antibacterial activity against methicillin-resistant Staphylococcus aureus 614019 clinical isolate after 20 to 24 hrs by two-fold microdilution method
# Staphylococcus aureus [26] = test: Antibacterial activity against methicillin-resistant Staphylococcus aureus 921026 clinical isolate after 20 to 24 hrs by two-fold microdilution method
# Staphylococcus aureus [27] = test: Antibacterial activity against methicillin-resistant Staphylococcus aureus 814039 clinical isolate after 20 to 24 hrs by two-fold microdilution method
# Staphylococcus aureus [28] = test: Antibacterial activity against methicillin-resistant Staphylococcus aureus 822030 clinical isolate after 20 to 24 hrs by two-fold microdilution method
# Staphylococcus aureus [29] = test: Antibacterial activity against methicillin-resistant Staphylococcus aureus 829034 clinical isolate after 20 to 24 hrs by two-fold microdilution method
# Staphylococcus aureus [30] = test: Antibacterial activity against methicillin-resistant Staphylococcus aureus 831024 clinical isolate after 20 to 24 hrs by two-fold microdilution method
# Staphylococcus aureus [31] = test: Antibacterial activity against methicillin-resistant Staphylococcus aureus 919205 clinical isolate after 20 to 24 hrs by two-fold microdilution method
# Staphylococcus aureus [32] = test: Antibacterial activity against methicillin-resistant Staphylococcus aureus 1019240 clinical isolate after 20 to 24 hrs by two-fold microdilution method
# Staphylococcus aureus [33] = test: Antibacterial activity against methicillin-resistant Staphylococcus aureus 1023043 clinical isolate after 20 to 24 hrs by two-fold microdilution method
# Staphylococcus aureus [34] = test: Antibacterial activity against methicillin-resistant Staphylococcus aureus 1026021 clinical isolate after 20 to 24 hrs by two-fold microdilution method
# Staphylococcus aureus [35] = test: Antibacterial activity against methicillin-resistant Staphylococcus aureus 1024004-2 clinical isolate after 20 to 24 hrs by two-fold microdilution method
# Staphylococcus aureus [36] = test: Antibacterial activity against methicillin-resistant Staphylococcus aureus 1026211 clinical isolate after 20 to 24 hrs by two-fold microdilution method
# Staphylococcus aureus [37] = test: Antibacterial activity against methicillin-resistant Staphylococcus aureus 1101016 clinical isolate after 20 to 24 hrs by two-fold microdilution method
# Staphylococcus aureus [38] = test: Antibacterial activity against methicillin-resistant Staphylococcus aureus 1107027 clinical isolate after 20 to 24 hrs by two-fold microdilution method
# Staphylococcus aureus [39] = test: Antibacterial activity against methicillin-resistant Staphylococcus aureus 1108204 clinical isolate after 20 to 24 hrs by two-fold microdilution method
# Staphylococcus aureus [40] = test: Antibacterial activity against methicillin-resistant Staphylococcus aureus 1111047-1 clinical isolate after 20 to 24 hrs by two-fold microdilution method
# Staphylococcus aureus [41] = test: Antibacterial activity against methicillin-resistant Staphylococcus aureus 1128040 clinical isolate after 20 to 24 hrs by two-fold microdilution method
# Staphylococcus aureus [42] = test: Antibacterial activity against methicillin-resistant Staphylococcus aureus 10844 clinical isolate after 20 to 24 hrs by two-fold microdilution method
# Staphylococcus aureus [43] = test: Antibacterial activity against methicillin-resistant Staphylococcus aureus 112047 clinical isolate after 20 to 24 hrs by two-fold microdilution method
# Staphylococcus aureus [44] = test: Antibacterial activity against methicillin-resistant Staphylococcus aureus 118038 clinical isolate after 20 to 24 hrs by two-fold microdilution method
# Staphylococcus aureus [45] = test: Antibacterial activity against methicillin-resistant Staphylococcus aureus 121026 clinical isolate after 20 to 24 hrs by two-fold microdilution method
# Staphylococcus aureus [46] = test: Antibacterial activity against methicillin-resistant Staphylococcus aureus 125025 clinical isolate after 20 to 24 hrs by two-fold microdilution method
smiles,measurement,setting,value
O=C1c2cccnc2C(=O)c2c1c(C(=O)OCCCCCN1CCOCC1)c1ccc(Br)cn21,MIC,Staphylococcus aureus [1],0.016 mg/L
same,MIC,Staphylococcus aureus [2],0.031 mg/L
same,MIC,[3],1 mg/L
same,MIC,Streptococcus pneumoniae,2 mg/L
same,MIC,[4],≤ 0.0078 mg/L
same,MIC,Staphylococcus aureus [5],0.063 mg/L
same,MIC,Staphylococcus aureus [6],0.063 mg/L
same,MIC,Staphylococcus aureus [7],0.063 mg/L
same,MIC,Staphylococcus aureus [8],≤ 0.0078 mg/L
same,MIC,Staphylococcus aureus [9],0.031 mg/L
same,MIC,Staphylococcus aureus [10],≤ 0.0078 mg/L
same,MIC,Staphylococcus aureus [11],≤ 0.0078 mg/L
same,MIC,Staphylococcus aureus [12],0.031 mg/L
same,MIC,Staphylococcus aureus [13],0.063 mg/L
same,MIC,Staphylococcus aureus [14],≤ 0.0078 mg/L
same,MIC,Staphylococcus aureus [15],0.031 mg/L
same,MIC,Staphylococcus aureus [16],≤ 0.0078 mg/L
same,MIC,Staphylococcus aureus [17],0.063 mg/L
same,MIC,Staphylococcus aureus [18],≤ 0.0078 mg/L
same,MIC,Staphylococcus aureus [19],0.031 mg/L
same,MIC,Staphylococcus aureus [20],≤ 0.0078 mg/L
same,MIC,Staphylococcus aureus [21],0.031 mg/L
same,MIC,Staphylococcus aureus [22],0.063 mg/L
same,MIC,Staphylococcus aureus [23],0.063 mg/L
same,MIC,Staphylococcus aureus [24],≤ 0.0078 mg/L
same,MIC,Staphylococcus aureus [25],0.031 mg/L
same,MIC,Staphylococcus aureus [26],≤ 0.0078 mg/L
same,MIC,Staphylococcus aureus [27],0.125 mg/L
same,MIC,Staphylococcus aureus [28],0.031 mg/L
same,MIC,Staphylococcus aureus [29],0.125 mg/L
same,MIC,Staphylococcus aureus [30],0.063 mg/L
same,MIC,Staphylococcus aureus [31],0.016 mg/L
same,MIC,Staphylococcus aureus [32],0.031 mg/L
same,MIC,Staphylococcus aureus [33],0.031 mg/L
same,MIC,Staphylococcus aureus [34],16 mg/L
same,MIC,Staphylococcus aureus [35],0.125 mg/L
same,MIC,Staphylococcus aureus [36],≤ 0.0078 mg/L
same,MIC,Staphylococcus aureus [37],0.031 mg/L
same,MIC,Staphylococcus aureus [38],≤ 0.0078 mg/L
same,MIC,Staphylococcus aureus [39],0.25 mg/L
same,MIC,Staphylococcus aureus [40],0.063 mg/L
same,MIC,Staphylococcus aureus [41],≤ 0.0078 mg/L
same,MIC,Staphylococcus aureus [42],≤ 0.0078 mg/L
same,MIC,Staphylococcus aureus [43],0.031 mg/L
same,MIC,Staphylococcus aureus [44],≤ 0.0078 mg/L
same,MIC,Staphylococcus aureus [45],≤ 0.0078 mg/L
same,MIC,Staphylococcus aureus [46],≤ 0.0078 mg/L
CN(C)CCCCCOC(=O)c1c2c(n3cc(Br)ccc13)C(=O)c1ncccc1C2=O,MIC,Staphylococcus aureus [1],≤ 0.0078 mg/L
same,MIC,Staphylococcus aureus [2],≤ 0.0078 mg/L
same,MIC,[3],0.25 mg/L
same,MIC,Streptococcus pneumoniae,0.5 mg/L
same,MIC,[4],≤ 0.0078 mg/L
same,MIC,Staphylococcus aureus [5],0.25 mg/L
same,MIC,Staphylococcus aureus [6],0.125 mg/L
same,MIC,Staphylococcus aureus [7],0.25 mg/L
same,MIC,Staphylococcus aureus [8],0.5 mg/L
same,MIC,Staphylococcus aureus [9],0.25 mg/L
same,MIC,Staphylococcus aureus [10],0.5 mg/L
same,MIC,Staphylococcus aureus [11],0.5 mg/L
same,MIC,Staphylococcus aureus [12],0.25 mg/L
same,MIC,Staphylococcus aureus [13],0.25 mg/L
same,MIC,Staphylococcus aureus [14],0.25 mg/L
same,MIC,Staphylococcus aureus [15],0.125 mg/L
same,MIC,Staphylococcus aureus [16],0.125 mg/L
same,MIC,Staphylococcus aureus [17],0.5 mg/L
same,MIC,Staphylococcus aureus [18],0.125 mg/L
same,MIC,Staphylococcus aureus [19],0.5 mg/L
same,MIC,Staphylococcus aureus [20],0.5 mg/L
same,MIC,Staphylococcus aureus [21],0.25 mg/L
same,MIC,Staphylococcus aureus [22],0.5 mg/L
same,MIC,Staphylococcus aureus [23],0.125 mg/L
same,MIC,Staphylococcus aureus [24],0.125 mg/L
same,MIC,Staphylococcus aureus [25],0.125 mg/L
same,MIC,Staphylococcus aureus [26],0.25 mg/L
same,MIC,Staphylococcus aureus [27],0.5 mg/L
same,MIC,Staphylococcus aureus [28],0.5 mg/L
same,MIC,Staphylococcus aureus [29],0.5 mg/L
same,MIC,Staphylococcus aureus [30],0.125 mg/L
same,MIC,Staphylococcus aureus [31],0.125 mg/L
same,MIC,Staphylococcus aureus [32],0.5 mg/L
same,MIC,Staphylococcus aureus [33],0.25 mg/L
same,MIC,Staphylococcus aureus [34],16 mg/L
same,MIC,Staphylococcus aureus [35],0.5 mg/L
same,MIC,Staphylococcus aureus [36],0.063 mg/L
same,MIC,Staphylococcus aureus [37],0.25 mg/L
same,MIC,Staphylococcus aureus [38],0.5 mg/L
same,MIC,Staphylococcus aureus [39],0.125 mg/L
same,MIC,Staphylococcus aureus [40],0.5 mg/L
same,MIC,Staphylococcus aureus [41],0.25 mg/L
same,MIC,Staphylococcus aureus [42],0.25 mg/L
same,MIC,Staphylococcus aureus [43],0.125 mg/L
same,MIC,Staphylococcus aureus [44],0.25 mg/L
same,MIC,Staphylococcus aureus [45],0.125 mg/L
same,MIC,Staphylococcus aureus [46],0.5 mg/L
